Data from ChEMBL document CHEMBL1201862, “PubChem BioAssay data set” (2004).
Active and inactive are the calls of the source.

Columns and labels:
[1] = NIH-3T3 fibroblast cytotoxicity, dose response, cytotoxicity control, cell-based, fluorescence, Alamar Blue, secondary assay (AID 2327); type: functional;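 also: NIH-3T3 mouse fibroblasts cultured with fluconazole at 8 µg/mL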
Leucine aminopeptidase = biological target: T1, Leucine aminopeptidase (Plasmodium falciparum 3D7, UniProt Q8IL11); experiment: P. falciparum M17LAP inhibitors, primary screen, biochemical, fluorogenic H-Leu-NHMec substrate, 1536-well (AID 1619); type: functional
T1 sequence (Q8IL11 whole entry): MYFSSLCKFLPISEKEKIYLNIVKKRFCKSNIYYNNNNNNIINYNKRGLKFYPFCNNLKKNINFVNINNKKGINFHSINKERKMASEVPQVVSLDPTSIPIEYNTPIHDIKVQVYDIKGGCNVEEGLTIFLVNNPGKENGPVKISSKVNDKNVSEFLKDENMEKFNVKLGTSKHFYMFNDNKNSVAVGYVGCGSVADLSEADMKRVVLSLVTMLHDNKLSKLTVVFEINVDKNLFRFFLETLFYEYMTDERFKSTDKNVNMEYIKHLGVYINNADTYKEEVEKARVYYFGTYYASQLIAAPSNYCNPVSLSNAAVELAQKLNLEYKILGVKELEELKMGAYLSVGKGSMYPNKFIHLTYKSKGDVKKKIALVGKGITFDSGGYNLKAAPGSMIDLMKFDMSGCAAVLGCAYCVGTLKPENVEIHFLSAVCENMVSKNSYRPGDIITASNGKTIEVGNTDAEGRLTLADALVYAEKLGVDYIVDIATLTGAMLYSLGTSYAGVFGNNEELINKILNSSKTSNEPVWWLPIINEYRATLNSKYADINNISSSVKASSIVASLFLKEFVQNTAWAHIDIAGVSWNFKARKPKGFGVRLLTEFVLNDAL

[2] = fluconazole-exposed Candida albicans growth modulators – fluorescence, retest, confirmation (AID 2467); type: functional, cell-based
[3] = biological target: T2, Short transient receptor potential channel 4 (Mus musculus, UniProt Q9QUQ5); experiment: calcium entry via TRPC4 opening agents – cell-based, HEK293 TRPC4/mu-opioid, Fluo-4 calcium, dose response (AID 434937); type: functional
T2 sequence (Q9QUQ5 whole entry): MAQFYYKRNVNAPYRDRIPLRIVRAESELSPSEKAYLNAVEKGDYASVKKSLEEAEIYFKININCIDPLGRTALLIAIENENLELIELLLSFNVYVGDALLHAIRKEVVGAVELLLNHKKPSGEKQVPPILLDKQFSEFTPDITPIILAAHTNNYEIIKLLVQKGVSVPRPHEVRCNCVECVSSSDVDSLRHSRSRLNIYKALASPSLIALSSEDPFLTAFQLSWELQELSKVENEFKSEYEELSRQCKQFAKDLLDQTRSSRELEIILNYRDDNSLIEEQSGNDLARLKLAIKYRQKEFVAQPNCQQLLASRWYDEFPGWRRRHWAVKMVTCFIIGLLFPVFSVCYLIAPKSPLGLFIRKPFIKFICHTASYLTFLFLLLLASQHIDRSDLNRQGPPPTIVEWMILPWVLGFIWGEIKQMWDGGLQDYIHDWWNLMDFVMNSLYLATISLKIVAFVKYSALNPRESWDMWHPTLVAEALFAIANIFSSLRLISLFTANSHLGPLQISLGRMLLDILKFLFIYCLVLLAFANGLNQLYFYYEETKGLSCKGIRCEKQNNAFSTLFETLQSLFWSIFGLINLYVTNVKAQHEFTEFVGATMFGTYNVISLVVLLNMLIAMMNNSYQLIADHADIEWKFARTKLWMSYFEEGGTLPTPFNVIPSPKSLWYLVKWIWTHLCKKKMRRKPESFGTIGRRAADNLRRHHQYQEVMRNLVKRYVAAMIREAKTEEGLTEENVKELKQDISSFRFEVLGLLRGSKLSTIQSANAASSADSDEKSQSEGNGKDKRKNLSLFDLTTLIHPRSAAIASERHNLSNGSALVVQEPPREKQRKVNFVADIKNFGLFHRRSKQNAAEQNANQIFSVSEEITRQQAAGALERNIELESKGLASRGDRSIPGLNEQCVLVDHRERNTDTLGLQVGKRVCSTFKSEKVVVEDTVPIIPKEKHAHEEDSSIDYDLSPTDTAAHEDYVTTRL

[4] = biological target: Heat shock protein HSP 90-alpha (Homo sapiens, UniProt P07900); type: functional, organism-based
[5] = biological target: T3, High affinity choline transporter 1 (Homo sapiens, UniProt Q9GZV3); experiment: human choline transporter blockers, potency – cell-based, 5-point CRC, membrane potential dye, dose response (AID 504840); type: functional
T3 sequence (Q9GZV3 whole entry): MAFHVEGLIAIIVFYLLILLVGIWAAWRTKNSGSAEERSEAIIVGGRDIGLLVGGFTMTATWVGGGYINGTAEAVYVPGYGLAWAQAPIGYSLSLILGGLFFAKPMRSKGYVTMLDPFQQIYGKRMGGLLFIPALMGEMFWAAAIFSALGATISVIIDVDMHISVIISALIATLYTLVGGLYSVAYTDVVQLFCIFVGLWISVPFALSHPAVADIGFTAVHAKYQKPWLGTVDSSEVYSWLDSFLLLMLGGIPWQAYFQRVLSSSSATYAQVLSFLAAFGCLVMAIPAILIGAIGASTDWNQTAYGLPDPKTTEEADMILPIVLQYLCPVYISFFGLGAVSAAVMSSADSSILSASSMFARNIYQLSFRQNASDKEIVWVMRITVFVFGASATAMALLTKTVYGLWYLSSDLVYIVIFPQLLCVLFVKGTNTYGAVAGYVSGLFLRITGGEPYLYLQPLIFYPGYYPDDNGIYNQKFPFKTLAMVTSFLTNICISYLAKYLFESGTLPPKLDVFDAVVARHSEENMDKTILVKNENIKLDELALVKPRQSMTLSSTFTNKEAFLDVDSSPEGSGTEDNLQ

Vero [6] = experiment: cells; type: functional, cell-based; settings: Chlorocebus sabaeus
Vero [7] = experiment: cells; type: functional; settings: Chlorocebus sabaeus
[8] = decrease of insulin promoter-GFP reporter – imaging, high-content screening, mouse beta cells (AID 1628); type: functional; settings: MIN6
[9] = MIN6 cell viability loss – mouse insulinoma, cytotoxicity control, dose response (AID 2122); type: functional;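 also: confirmatory high-throughput counterscreen run to flag cytotoxic compounds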
[10] = Luminescence Cell-Based Dose Confirmation HTS to Identify Activators of 5'UTR Stem-Loop Driven Alpha-Synuclein mRNA Translation in H4 Neuroglioblastoma Cells. [Related pubchem assays: 1829 (Project Summary), 1814 (Primary HTS)]; type: functional
[11] = Luminescence Cell-Based Dose Response HTS to Identify Activators of Luciferase Translation or Activity in H4 […] Cells. [Related pubchem assays: 1829 (Project Summary), 1814 (Primary HTS)]; type: functional
H4 = experiment: Luminescence Cell-Based Dose Response HTS to Identify Activators of 5'UTR Stem-Loop Driven Prion Protein mRNA Translation in H4 Neuroglioblastoma Cells. [Related pubchem assays: 1829 (Project Summary), 1814 (Primary HTS)]; type: functional; settings: Homo sapiens
Cytochrome P450 1A2 = biological target: T4, Cytochrome P450 1A2 (Homo sapiens, UniProt P05177);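 also: PubChem cytochrome P450 panel assay, CYP1A2 panel member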
T4 sequence (P05177 whole entry): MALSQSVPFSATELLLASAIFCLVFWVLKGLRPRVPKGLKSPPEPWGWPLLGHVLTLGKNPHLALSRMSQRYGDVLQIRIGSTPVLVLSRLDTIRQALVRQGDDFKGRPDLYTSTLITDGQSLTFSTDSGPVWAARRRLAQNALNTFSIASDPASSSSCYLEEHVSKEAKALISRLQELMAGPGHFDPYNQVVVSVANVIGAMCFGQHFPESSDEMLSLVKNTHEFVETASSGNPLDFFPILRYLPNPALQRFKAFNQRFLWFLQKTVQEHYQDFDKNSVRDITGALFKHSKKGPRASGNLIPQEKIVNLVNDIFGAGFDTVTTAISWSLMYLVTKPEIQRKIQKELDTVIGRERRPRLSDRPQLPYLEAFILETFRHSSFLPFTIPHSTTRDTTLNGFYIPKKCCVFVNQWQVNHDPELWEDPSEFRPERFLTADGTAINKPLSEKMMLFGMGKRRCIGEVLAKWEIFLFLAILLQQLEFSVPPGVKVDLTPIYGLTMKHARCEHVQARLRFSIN

Cytochrome P450 2C9 = Cytochrome P450 2C9 (Homo sapiens, UniProt P11712)
[12] = biological target: Peroxisome proliferator-activated receptor gamma/Nuclear receptor coactivator 2 (Homo sapiens, UniProt P37231); type: functional;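 also: agonist potency for raising coactivator recruitment to the receptor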
[13] = biological target: Peroxisome proliferator-activated receptor gamma/Nuclear receptor coactivator 1 (Homo sapiens, UniProt P37231); type: functional;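 also: agonist potency as compounds enhance coactivator SRC-1 recruitment to PPARgamma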
[14] = biological target: Peroxisome proliferator-activated receptor gamma/Nuclear receptor coactivator 3 (Homo sapiens, UniProt P37231); type: functional;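 also: agonist potency for raising coactivator recruitment to the receptor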
[15] = viability of PTEN-deleted HCT116 cells – cell-based, HCT116 PTEN knockout, dose response (AID 1047); type: functional;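 also: HCT116 colon tumor cells with PTEN knocked out; cells exposed to compound for 60 hours before readout; potency for loss of cell viability measured by luminescence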
[16] = viability of HCT116 lacking mutant beta-catenin – cell-based, human colon tumor, dose response (AID 1045); type: functional;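 also: HCT116 colon tumor cells with beta catenin knocked out; cells exposed to compound for 60 hours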

Sequence of Cytochrome P450 2C9 (P11712 whole entry): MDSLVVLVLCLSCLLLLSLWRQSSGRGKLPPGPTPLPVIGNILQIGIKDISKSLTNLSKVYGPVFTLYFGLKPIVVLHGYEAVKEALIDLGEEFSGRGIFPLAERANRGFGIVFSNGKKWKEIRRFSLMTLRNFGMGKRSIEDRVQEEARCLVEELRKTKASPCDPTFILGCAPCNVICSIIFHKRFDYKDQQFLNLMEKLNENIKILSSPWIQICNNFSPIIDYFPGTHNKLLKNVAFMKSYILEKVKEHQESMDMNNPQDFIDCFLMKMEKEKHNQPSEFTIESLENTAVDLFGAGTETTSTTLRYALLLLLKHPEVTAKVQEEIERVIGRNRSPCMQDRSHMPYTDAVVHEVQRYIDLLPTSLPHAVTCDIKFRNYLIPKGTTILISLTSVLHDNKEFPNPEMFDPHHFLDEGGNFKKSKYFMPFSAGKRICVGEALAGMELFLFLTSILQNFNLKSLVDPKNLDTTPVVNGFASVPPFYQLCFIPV
Sequence of Peroxisome proliferator-activated receptor gamma/Nuclear receptor coactivator 1 (P37231 whole entry): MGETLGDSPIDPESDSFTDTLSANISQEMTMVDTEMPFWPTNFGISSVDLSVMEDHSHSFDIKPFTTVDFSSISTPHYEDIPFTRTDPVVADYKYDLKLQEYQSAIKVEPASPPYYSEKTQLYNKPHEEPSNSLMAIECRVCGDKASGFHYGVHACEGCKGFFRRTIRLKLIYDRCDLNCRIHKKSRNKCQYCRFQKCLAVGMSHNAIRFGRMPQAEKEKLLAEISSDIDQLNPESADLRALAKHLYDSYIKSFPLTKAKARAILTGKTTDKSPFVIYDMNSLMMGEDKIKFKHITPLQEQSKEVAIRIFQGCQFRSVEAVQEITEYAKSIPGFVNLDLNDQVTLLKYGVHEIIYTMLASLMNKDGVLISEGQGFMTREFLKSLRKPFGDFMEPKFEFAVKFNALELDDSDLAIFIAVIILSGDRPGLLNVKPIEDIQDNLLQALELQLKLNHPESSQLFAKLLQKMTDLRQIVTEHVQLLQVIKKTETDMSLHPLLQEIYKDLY
Sequence of Peroxisome proliferator-activated receptor gamma/Nuclear receptor coactivator 1 (Q15788 whole entry, further chain): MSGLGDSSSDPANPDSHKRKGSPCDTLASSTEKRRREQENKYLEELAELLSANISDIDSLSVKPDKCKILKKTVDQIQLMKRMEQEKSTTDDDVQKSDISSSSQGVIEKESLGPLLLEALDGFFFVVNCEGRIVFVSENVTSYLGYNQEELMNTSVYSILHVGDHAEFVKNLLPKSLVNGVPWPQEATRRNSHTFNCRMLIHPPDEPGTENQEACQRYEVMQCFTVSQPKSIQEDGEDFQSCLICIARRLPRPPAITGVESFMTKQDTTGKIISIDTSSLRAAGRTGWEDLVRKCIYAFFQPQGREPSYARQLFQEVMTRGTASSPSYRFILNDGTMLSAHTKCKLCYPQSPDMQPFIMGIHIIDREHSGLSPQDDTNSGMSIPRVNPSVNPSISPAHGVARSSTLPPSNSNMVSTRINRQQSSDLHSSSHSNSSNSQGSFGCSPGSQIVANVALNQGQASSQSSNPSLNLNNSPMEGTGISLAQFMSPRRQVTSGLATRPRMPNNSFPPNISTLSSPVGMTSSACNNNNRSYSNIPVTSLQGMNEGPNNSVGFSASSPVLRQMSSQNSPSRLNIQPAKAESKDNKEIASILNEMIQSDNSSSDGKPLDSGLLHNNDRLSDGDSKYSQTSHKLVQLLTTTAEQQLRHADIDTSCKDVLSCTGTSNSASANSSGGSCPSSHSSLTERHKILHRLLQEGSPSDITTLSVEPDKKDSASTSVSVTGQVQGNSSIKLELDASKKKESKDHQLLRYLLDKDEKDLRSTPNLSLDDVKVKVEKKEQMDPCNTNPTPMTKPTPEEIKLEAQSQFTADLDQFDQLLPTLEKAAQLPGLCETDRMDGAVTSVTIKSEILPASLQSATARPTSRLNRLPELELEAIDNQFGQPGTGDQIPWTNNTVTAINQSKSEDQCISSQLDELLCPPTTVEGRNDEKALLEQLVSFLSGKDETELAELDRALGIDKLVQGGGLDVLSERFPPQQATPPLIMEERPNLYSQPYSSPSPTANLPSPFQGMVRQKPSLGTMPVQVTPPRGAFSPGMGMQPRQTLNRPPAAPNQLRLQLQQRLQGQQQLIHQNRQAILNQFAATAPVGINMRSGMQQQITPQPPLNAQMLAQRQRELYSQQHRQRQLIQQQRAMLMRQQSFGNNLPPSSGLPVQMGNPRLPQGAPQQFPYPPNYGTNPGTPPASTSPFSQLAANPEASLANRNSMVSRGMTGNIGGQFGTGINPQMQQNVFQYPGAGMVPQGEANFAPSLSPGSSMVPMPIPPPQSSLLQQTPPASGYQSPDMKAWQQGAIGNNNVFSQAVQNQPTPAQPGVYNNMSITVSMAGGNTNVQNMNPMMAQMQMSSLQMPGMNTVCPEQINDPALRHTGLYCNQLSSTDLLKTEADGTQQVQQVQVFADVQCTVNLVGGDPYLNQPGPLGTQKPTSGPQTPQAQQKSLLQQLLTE
Sequence of Peroxisome proliferator-activated receptor gamma/Nuclear receptor coactivator 2 (P37231 whole entry): as the sequence (P37231 whole entry) above
Sequence of Peroxisome proliferator-activated receptor gamma/Nuclear receptor coactivator 2 (Q15596 whole entry, further chain): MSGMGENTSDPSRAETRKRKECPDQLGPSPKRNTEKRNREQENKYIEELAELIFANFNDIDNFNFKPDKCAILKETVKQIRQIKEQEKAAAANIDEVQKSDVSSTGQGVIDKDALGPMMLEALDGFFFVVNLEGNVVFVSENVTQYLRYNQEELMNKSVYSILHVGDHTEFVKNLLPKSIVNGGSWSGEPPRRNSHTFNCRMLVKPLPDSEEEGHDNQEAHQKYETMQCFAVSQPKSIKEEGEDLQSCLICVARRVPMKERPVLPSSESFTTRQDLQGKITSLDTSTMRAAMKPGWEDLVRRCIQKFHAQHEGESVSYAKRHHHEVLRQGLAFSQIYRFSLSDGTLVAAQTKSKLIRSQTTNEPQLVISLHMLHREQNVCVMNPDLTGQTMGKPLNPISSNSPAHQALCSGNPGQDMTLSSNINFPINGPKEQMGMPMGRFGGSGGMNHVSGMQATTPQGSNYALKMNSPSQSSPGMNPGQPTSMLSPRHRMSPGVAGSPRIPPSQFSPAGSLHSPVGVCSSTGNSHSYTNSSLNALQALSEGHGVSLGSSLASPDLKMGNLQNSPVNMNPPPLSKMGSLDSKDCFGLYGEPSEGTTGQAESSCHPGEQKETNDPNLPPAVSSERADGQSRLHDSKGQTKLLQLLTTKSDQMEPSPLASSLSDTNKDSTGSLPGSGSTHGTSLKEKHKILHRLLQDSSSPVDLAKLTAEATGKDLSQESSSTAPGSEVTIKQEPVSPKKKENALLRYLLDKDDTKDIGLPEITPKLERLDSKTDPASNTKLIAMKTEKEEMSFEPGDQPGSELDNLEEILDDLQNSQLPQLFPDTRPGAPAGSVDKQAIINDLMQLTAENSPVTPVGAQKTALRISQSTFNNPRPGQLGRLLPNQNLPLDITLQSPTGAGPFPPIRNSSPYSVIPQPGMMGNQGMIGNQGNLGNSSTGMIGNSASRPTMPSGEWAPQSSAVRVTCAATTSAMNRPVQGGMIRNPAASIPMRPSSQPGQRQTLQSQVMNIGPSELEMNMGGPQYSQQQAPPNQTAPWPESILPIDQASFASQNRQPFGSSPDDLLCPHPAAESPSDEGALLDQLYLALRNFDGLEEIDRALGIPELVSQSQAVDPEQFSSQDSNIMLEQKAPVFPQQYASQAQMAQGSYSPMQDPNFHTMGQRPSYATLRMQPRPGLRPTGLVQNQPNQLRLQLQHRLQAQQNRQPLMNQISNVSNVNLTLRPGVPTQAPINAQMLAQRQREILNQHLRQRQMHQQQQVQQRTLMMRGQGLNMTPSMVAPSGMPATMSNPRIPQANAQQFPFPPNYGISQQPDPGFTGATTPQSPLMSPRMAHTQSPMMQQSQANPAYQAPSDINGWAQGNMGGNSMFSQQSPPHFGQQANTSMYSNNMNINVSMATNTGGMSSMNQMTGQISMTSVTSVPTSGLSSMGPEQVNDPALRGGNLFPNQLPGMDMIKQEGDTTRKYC

Cc1cccc(C(=O)NC(=S)NNC(=O)Cc2ccccc2)c1
EC50 [1]: > 150 µM (inactive) | IC50 (Leucine aminopeptidase): 56.6 µM (active) | EC50 [2]: 1.14 µM (active) | EC50 [3]: 4.22 µM (active) | AC50 [4]: 4.66 µM (active) | IC50 [5]: 13.2 µM (active) | IC50 (Vero [6]): 22.7 µM (active) | CC50 (Vero [7]): > 25 µM (active)

COc1ccc2[nH]c3c(N4CCN(Cc5ccc6c(c5)OCO6)CC4)ncnc3c2c1
IC50 [8]: 2.79 µM (active) | IC50 [9]: 2.58 µM (active)

Clc1ccc2sc(C3CCNCC3)nc2c1
EC50 [10]: 0.141 µM (active) | EC50 [11]: 42.4 µM (active) | EC50 (H4): 0.168 µM (active) | EC50 [3]: 0.008 µM (active)

CCOC(=O)c1c(C)c(C(=O)N2CCCCCC2)c(C)n1C
AC50 (Cytochrome P450 1A2): 25.1 µM (inconclusive) | AC50 (Cytochrome P450 2C9): inconclusive

CCOc1ccc(-c2nn(-c3ccccc3)cc2/C=C2\SC(N)=NC2=O)cc1C
EC50 [12]: > 79.4 µM (not active) | EC50 [13]: > 79.4 µM (not active) | EC50 [14]: > 79.4 µM (not active) | EC50 [15]: 8.6 µM (active) | EC50 [16]: 8.58 µM (active) | AC50 (Cytochrome P450 1A2): 15.8 µM (inconclusive) | AC50 (Cytochrome P450 2C9): inconclusive
